Measured values as given in the NIST ThermoML archive (doi:10.1016/j.fluid.2008.06.014).

Conditions: Liquid, vibrating wire

CCOCC [diethyl ether]
Conditions | mass density [kg/m3] | viscosity [mPa·s]
243.15 K, 100 kPa | 768.339 | 0.412
243.15 K, 4360 kPa | 771.759 | 0.427
243.15 K, 9400 kPa | 775.801 | 0.445
243.15 K, 14450 kPa | 779.603 | 0.463
243.15 K, 19460 kPa | 783.16 | 0.481
253.15 K, 100 kPa | 758.413 | 0.363
253.15 K, 4440 kPa | 762.367 | 0.377
253.15 K, 9400 kPa | 766.683 | 0.392
253.15 K, 14460 kPa | 770.762 | 0.408
253.15 K, 19510 kPa | 774.696 | 0.424
263.15 K, 100 kPa | 747.885 | 0.323
263.15 K, 4390 kPa | 752.036 | 0.335
263.15 K, 9440 kPa | 756.778 | 0.35
263.15 K, 14430 kPa | 761.197 | 0.364
263.15 K, 19430 kPa | 765.357 | 0.378
273.15 K, 100 kPa | 736.593 | 0.288
273.15 K, 4380 kPa | 741.075 | 0.3
273.15 K, 9430 kPa | 746.224 | 0.313
273.15 K, 14470 kPa | 750.968 | 0.326
273.15 K, 19480 kPa | 755.407 | 0.339
283.15 K, 100 kPa | 725.632 | 0.26
283.15 K, 4390 kPa | 730.65 | 0.27
283.15 K, 9420 kPa | 735.997 | 0.283
283.15 K, 14500 kPa | 741.302 | 0.294
283.15 K, 19540 kPa | 746.114 | 0.307
293.15 K, 100 kPa | 714.517 | 0.235
293.15 K, 4380 kPa | 719.86 | 0.245
293.15 K, 9420 kPa | 725.825 | 0.256
293.15 K, 14480 kPa | 731.278 | 0.268
293.15 K, 19490 kPa | 736.437 | 0.28
303.15 K, 220 kPa | 702.89 | 0.214
303.15 K, 4380 kPa | 708.706 | 0.223
303.15 K, 9420 kPa | 715.312 | 0.234
303.15 K, 14500 kPa | 721.122 | 0.245
303.15 K, 19560 kPa | 726.788 | 0.256
313.15 K, 410 kPa | 691.21 | 0.195
313.15 K, 4360 kPa | 697.329 | 0.203
313.15 K, 9430 kPa | 704.446 | 0.214
313.15 K, 14520 kPa | 710.954 | 0.225
313.15 K, 19610 kPa | 717.082 | 0.235
323.15 K, 350 kPa | 678.758 | 0.179
323.15 K, 4380 kPa | 685.74 | 0.187
323.15 K, 9430 kPa | 693.587 | 0.197
323.15 K, 14490 kPa | 700.362 | 0.209
323.15 K, 19510 kPa | 707.014 | 0.217
333.15 K, 410 kPa | 666.408 | 0.163
333.15 K, 4390 kPa | 673.959 | 0.172
333.15 K, 9430 kPa | 682.531 | 0.182
333.15 K, 14470 kPa | 690.138 | 0.192
333.15 K, 19470 kPa | 697.082 | 0.201
343.15 K, 340 kPa | 653.148 | 0.15
343.15 K, 4390 kPa | 661.825 | 0.158
343.15 K, 9420 kPa | 671.37 | 0.167
343.15 K, 14460 kPa | 679.704 | 0.178
343.15 K, 19470 kPa | 687.162 | 0.187
353.15 K, 410 kPa | 639.678 | 0.137
353.15 K, 4380 kPa | 649.165 | 0.146
353.15 K, 9410 kPa | 659.723 | 0.155
353.15 K, 14440 kPa | 668.759 | 0.165
353.15 K, 19400 kPa | 676.864 | 0.174
363.15 K, 510 kPa | 625.615 | 0.126
363.15 K, 4380 kPa | 636.228 | 0.134
363.15 K, 9390 kPa | 647.821 | 0.144
363.15 K, 14400 kPa | 657.773 | 0.153
363.15 K, 19350 kPa | 666.459 | 0.162
373.15 K, 650 kPa | 610.791 | 0.116
373.15 K, 4380 kPa | 622.533 | 0.124
373.15 K, 9380 kPa | 635.564 | 0.134
373.15 K, 14400 kPa | 646.594 | 0.143
373.15 K, 19460 kPa | 656.28 | 0.151
